Key:
[1] = target: T1, porcine pancreatic lipase (Sus scrofa, UniProt P00591); assay: Assay of lipase inhibitory activity (olive oil emulsion with sodium cholate, Tris buffer); type: biochemical
T1 construct: purchased Sigma Co., Ltd
T1 sequence (P00591 1-450): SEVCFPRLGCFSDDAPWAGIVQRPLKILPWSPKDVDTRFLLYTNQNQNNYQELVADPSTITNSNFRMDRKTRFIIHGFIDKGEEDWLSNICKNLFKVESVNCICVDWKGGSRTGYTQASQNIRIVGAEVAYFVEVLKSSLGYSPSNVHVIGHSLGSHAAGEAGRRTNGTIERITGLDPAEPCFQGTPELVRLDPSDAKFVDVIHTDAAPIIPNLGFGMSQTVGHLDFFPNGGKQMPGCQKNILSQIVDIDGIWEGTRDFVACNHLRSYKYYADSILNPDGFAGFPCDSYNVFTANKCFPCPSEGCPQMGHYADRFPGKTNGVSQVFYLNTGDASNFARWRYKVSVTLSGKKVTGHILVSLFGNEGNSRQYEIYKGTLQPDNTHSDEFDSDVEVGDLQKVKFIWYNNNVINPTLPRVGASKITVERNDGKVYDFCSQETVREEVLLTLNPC
Experimental: 250 mg of an olive oil, 21.5 mg of sodium cholate as a bile acid component and 30 mg of phosphatidylcholine were added to 5 ml of a 200 mM Tris buffer solution at pH 6.8 (called hereafter "Tris buffer").
(§1) The mixture was ultrasonicated to prepare an olive oil emulsion.
Porcine pancreatic lipase (manufactured by Sigma Co., Ltd.) was added to Tris buffer to prepare an enzyme solution containing 100 units porcine pancreatic lipase per ml.
(§2) The control and six test samples were prepared in the following manner.
(§3) 100 μl of an olive oil emulsion as prepared above were used as a substrate.
(§4) 50 μl of Tris buffer was added to the substrate to prepare an emulsion for control sample. […] All of the emulsions were incubated for 5 min. To each of those emulsions was added 50 μl of the lipase solution as prepared above. The resulting mixture was incubated at 37° C. for one hour, subsequently to which were added 3 ml of the same extraction solvent as used in Example 1. After being shaken for 5 min., the mixture was centrifuged at 3000 rpm for 5 min. The upper layer was removed with an aspirator and to the remaining solution was added 1 ml of the same copper reagent as used in Example 1. The mixture was shaken for 5 min. and centrifuged at 3000 rpm for 5 min. 0.5 ml of a solution was taken from the upper layer and to the solution was added 0.5 ml of the same color developing agent as used in Example 1.
(§5) The resulting solutions for control and test samples were measured for the absorbance at 480 nm (A480) using a photometer to determine the amount of the free fatty acids as formed, i.e., the activity of the porcine pancreatic lipase.
100 μl of an olive oil emulsion prepared in the same way as in Example 4 were used as a substrate.
50 μl of Tris buffer was added to the substrate to prepare an emulsion for control sample. Each 50 μl of the polypeptide-containing solutions as prepared above was added to 100 μl of the substrate to prepare two emulsions for test sample. After incubating the emulsions for 5 min., there was added 50 μl of the enzyme solution prepared in the same way as in Example 4.
Further, the incubated mixture was treated and measured for the activity of porcine pancreatic lipase in the same way as in Example 4.
Lysine oligomers having a degree of polymerization of 2-5 as shown in Table 6 below were prepared using a peptide synthesizer (Biolynx 4170, LKB-Pharmacia Co., Ltd.). Each of the oligomers was purified by high performance liquid chromatography. Each of the purified oligomers was added to distilled water to make up to 1 μmol/ml. […] lysine oligomer-containing solutions were thus prepared.
50 μl of Tris buffer was added to the substrate to prepare an emulsion for control sample. […] After incubating the emulsions for 5 min., there was added 50 μl of a lipase solution containing 100 units of porcine pancreatic lipase per ml as prepared in the same way as in Example 4.

[2] = system: cholesterol esterase isolated from porcine pancreas; details: 4 mg/ml protein solution; percentage of control Abs480; sodium cholate present; 37 °C, one hour
Experimental: as §3
as §4, with “potassium phosphate” for “Tris”

[3] = target: T1, porcine pancreatic lipase; assay: Assay of lipase inhibitory activity of proteins (olive oil emulsion with sodium cholate, potassium phosphate buffer); type: biochemical; details: for Activity of porcine pancreatic lipase (%): 4 mg/ml protein solution, percentage of control Abs480, sodium cholate present, potassium phosphate buffer pH 6.8, 37 °C, one hour
Experimental: 250 mg of an olive oil, 21.5 mg of sodium cholate as a bile acid component and 30 mg of phosphatidylcholine were added to 5 ml of a 300 mM potassium phosphate buffer solution at pH 6.8 (called hereafter "potassium phosphate buffer").
as §1
Porcine pancreatic lipase (manufactured by Sigma Co., Ltd.) was added to the potassium phosphate buffer solution to prepare a lipase solution containing 100 units porcine pancreatic lipase per ml.
as §2, §3
50 μl of potassium phosphate buffer was added to the substrate to prepare an emulsion for control sample. Each 50 μl of the protein(polypeptide)-containing solutions as prepared above was added to 100 μl of the substrate to prepare six emulsions for test samples. All of the emulsions were incubated for 5 min. To each of those emulsions was added 50 μl of the lipase solution as prepared above. The resulting mixture was incubated at 37 ° C. for one hour, subsequently to which were added 3 ml of an extraction solvent (chloroform:methanol:n-heptane=49:1:49). After being shaken for 5 min., the mixture was centrifuged at 3000 rpm for 5 min. The upper layer was removed with an aspirator and to the remaining solution was added 1 ml of a copper reagent (0.45M triethanol amine, 0.05N acetic acid, 3.4% copper sulfate pentahydrate and 20% sodium chloride). The mixture was shaken for 5 min. and centrifuged at 3000 rpm for 5 min. 0.5 ml of a solution was taken from the upper layer and to the solution was added 0.5 ml of a color developing agent (a solution of 0.1% bathocuproine and 0.05% butyl hydroxyanisole in the above extraction solvent).
as §5

[4] = Serum triglyceride concentration in rats after oral corn oil emulsion; type: in vivo, SD male rats; details: 2 ml corn oil emulsion + 100 mg ε-poly-L-lysine/dextrin 1:1, relative to pre-dose (0)
Experimental: Two groups of 10 SD male rats (9 weeks age, 200 g average bodyweight) were prepared.
50 g of corn oil, 6 g of yolk lecithine and 12.5 g of glycerol were added to distilled water to make up to 100 ml. The mixture was ultrasonicated to prepare an emulsion.
The rats of first group were each given 2 ml of the emulsion and 100 mg of ε-poly-L-lysine manufactured by Chisso Corp. (containing dextrin and ε-poly-L-lysine at a weight ratio of 1:1 and having formula (I) wherein n is ca. 30), orally using a gastric probe. Blood was drawn at predetermined intervals from the tail vein, and serum triglyceride concentration was measured using Kyowa Medics enzyme Kit TG, determined for mean value (mg/dl) per animal and calculated on the basis of serum triglyceride concentration prior to administration (taken as 0 mg/dl) (According to the invention).
The rats of second group were orally given 2 ml of the emulsion and 50 mg of dextrin. Serum triglyceride concentration was measured at predetermined intervals, determined for the average value and calculated in the same way as above (Comparative example).

[5] = 1 mg per 10 ml Tris buffer solution, pH 6.8, sodium cholate present, percentage of control Abs480
[6] = 1 mg/ml peptide solution in distilled water, Tris buffer system as Example 4

Protamine
Activity of porcine pancreatic lipase (%) [1, 5]: 1.3%

α-poly-D-lysine hydrobromide
Activity of porcine pancreatic lipase (%) [1, 6]: 1.1%

α-poly-L-lysine hydrochloride
Activity of porcine pancreatic lipase (%) [1, 5]: 6.9% | Activity of porcine pancreatic lipase (%) [1, 6]: 1.6%

β-Lactoglobulin: β-lactoglobulin (L0130, Sigma Co., Ltd.), not a basic protein [reference compound]
Activity of cholesterol esterase (%) [2]: 89.9% | Activity of porcine pancreatic lipase (%) [3]: 103.9%

β-Purothionin: purified β-purothionin (SEQ ID NO: 3) isolated from the crude wheat purothionin mixture (KSCCKSTLGRNCYNLCRARGAQKLCANVCRCKLTSGLSCPKDFPK)
Activity of porcine pancreatic lipase (%) [3]: 0% | Activity of porcine pancreatic lipase ([3]; concentration of 0.04 mg/ml, separate experiment in a similar manner): 5.2% | Lipase activity ([3]; protein solution diluted to 0.2 mg/ml, otherwise as Example 1): 0% | Activity of porcine pancreatic lipase (%) [1, 5]: 1.3%

ε-poly-L-lysine
Blood concentration of neutral fats ([4]; 1 hr after oral administration): 53.3 ± 2.5 mg/dL | Blood concentration of neutral fats ([4]; 2 hrs after oral administration): 32.4 ± 4.9 mg/dL | Blood concentration of neutral fats ([4]; 3 hrs after oral administration): 16.7 ± 3.2 mg/dL | Blood concentration of neutral fats ([4]; 4 hrs after oral administration): 11.1 ± 3.0 mg/dL | Blood concentration of neutral fats ([4]; 7 hrs after oral administration): 4.2 ± 1.0 mg/dL

B1: Ovalbumin: ovalbumin (A5503, Sigma Co., Ltd.), not a basic protein (protein, UniProt P01012 2-386, looked up)
Ovalbumin: GSIGAASMEFCFDVFKELKVHHANENIFYCPIAIMSALAMVYLGAKDSTRTQINKVVRFDKLPGFGDSIEAQCGTSVNVHSSLRDILNQITKPNDVYSFSLASRLYAEERYPILPEYLQCVKELYRGGLEPINFQTAADQARELINSWVESQTNGIIRNVLQPSSVDSQTAMVLVNAIVFKGLWEKAFKDEDTQAMPFRVTEQESKPVQMMYQIGLFRVASMASEKMKILELPFASGTMSMLVLLPDEVSGLEQLESIINFEKLTEWTSSNVMEERKIKVYLPRMKMEEKYNLTSVLMAMGITDVFSSSANLSGISSAESLKISQAVHAAHAEINEAGREVVGSAEAGVDAASVSEEFRADHPFLFCIKHIATNAVLFFGRCVSP
Activity of cholesterol esterase (%) [2]: 93.6% | Activity of porcine pancreatic lipase (%) [3]: 107.0%

— US5411956A, “Lipolytic enzyme inhibitors” (Nisshin Flour Milling Co., Ltd., priority 1989, dated 1995)
